Experiments:
Assay in all cases: relative viability (nuclei count vs DMSO), 5 days (fraction); higher = more cells survive
NCI-H1651 = test system: NCI-H1651
Outline: (§1)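 Each reported value is a median over duplicate plates. It expresses relative viability: treated-well nuclei count divided by vehicle-well nuclei count. Lung cancer cell lines in 1536-well plates were dosed by pin tool a day after seeding, alone with one drug or with a fixed anchor-drug dose plus five library-drug doses (not always all listed) in √10 steps, and nuclei were counted after 5 days.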

HARA = test system: HARA
Outline: as §1

NCI-H1755 = test system: NCI-H1755
Outline: as §1

NCI-H2085 = test system: NCI-H2085
Outline: as §1

NCI-H3122 = test system: NCI-H3122
Outline: as §1

NCI-H2087 = test system: NCI-H2087
Outline: as §1

HCC-78 = test system: HCC-78
Outline: as §1

LU99A = test system: LU99A
Outline: as §1

PC-3 [JPC-3] = test system: PC-3 [JPC-3]
Outline: as §1

HCC-366 = test system: HCC-366
Outline: as §1

201T = test system: 201T
Outline: as §1

NCI-H358 = test system: NCI-H358
Outline: as §1

NCI-H1793 = test system: NCI-H1793
Outline: as §1

NCI-H522 = test system: NCI-H522
Outline: as §1

NCI-H322M = test system: NCI-H322M
Outline: as §1

NCI-H460 = test system: NCI-H460
Outline: as §1

NCI-H596 = test system: NCI-H596
Outline: as §1

H3255 = test system: H3255
Outline: as §1

NCI-H650 = test system: NCI-H650
Outline: as §1

NCI-H23 = test system: NCI-H23
Outline: as §1

Compound: Cc1csc(=NC2CCCCC2)n1/N=C/c1ccc(O)c(O)c1O [MIM1] + NC(=O)Nc1cc(-c2cccc(F)c2)sc1C(=O)N[C@H]1CCCNC1 [AZD7762] (partner 0.2 µM)
- relative viability (NCI-H1651; first compound 0.2 µM): 0.464
- relative viability (NCI-H1651; first compound 0.6325 µM): 0.434
- relative viability (NCI-H1651; first compound 2 µM): 0.425
- relative viability (NCI-H1651; first compound 6.325 µM): 0.429
- relative viability (NCI-H1651; first compound 20 µM): 0.503
- relative viability (HARA; first compound 0.2 µM): 0.345
- relative viability (HARA; first compound 0.6325 µM): 0.412
- relative viability (HARA; first compound 2 µM): 0.189
- relative viability (HARA; first compound 6.325 µM): 0.219
- relative viability (HARA; first compound 20 µM): 0.148
- relative viability (NCI-H1755; first compound 0.2 µM): 0.464
- relative viability (NCI-H1755; first compound 0.6325 µM): 0.436
- relative viability (NCI-H1755; first compound 2 µM): 0.433
- relative viability (NCI-H1755; first compound 6.325 µM): 0.38
- relative viability (NCI-H1755; first compound 20 µM): 0.354
- relative viability (NCI-H2085; first compound 0.2 µM): 1
- relative viability (NCI-H2085; first compound 0.6325 µM): 0.963
- relative viability (NCI-H2085; first compound 2 µM): 1.07
- relative viability (NCI-H2085; first compound 6.325 µM): 0.766
- relative viability (NCI-H2085; first compound 20 µM): 0.775
- relative viability (NCI-H3122; first compound 0.2 µM): 0.945
- relative viability (NCI-H3122; first compound 0.6325 µM): 0.978
- relative viability (NCI-H3122; first compound 2 µM): 0.973
- relative viability (NCI-H3122; first compound 6.325 µM): 0.472
- relative viability (NCI-H3122; first compound 20 µM): 0.19
- relative viability (NCI-H2087; first compound 0.2 µM): 1.31
- relative viability (NCI-H2087; first compound 0.6325 µM): 1.29
- relative viability (NCI-H2087; first compound 2 µM): 1.45
- relative viability (NCI-H2087; first compound 6.325 µM): 0.87
- relative viability (NCI-H2087; first compound 20 µM): 1.05
- relative viability (HCC-78; first compound 0.2 µM): 0.548
- relative viability (HCC-78; first compound 2 µM): 0.611
- relative viability (HCC-78; first compound 6.325 µM): 0.507
- relative viability (HCC-78; first compound 20 µM): 0.662
- relative viability (LU99A; first compound 0.2 µM): 0.364
- relative viability (LU99A; first compound 0.6325 µM): 0.265
- relative viability (LU99A; first compound 2 µM): 0.258
- relative viability (LU99A; first compound 6.325 µM): 0.218
- relative viability (LU99A; first compound 20 µM): 0.0782
- relative viability (PC-3 [JPC-3]; first compound 0.2 µM): 0.899
- relative viability (PC-3 [JPC-3]; first compound 0.6325 µM): 0.801
- relative viability (PC-3 [JPC-3]; first compound 2 µM): 0.719
- relative viability (PC-3 [JPC-3]; first compound 6.325 µM): 0.724
- relative viability (PC-3 [JPC-3]; first compound 20 µM): 0.751
- relative viability (HCC-366; first compound 0.2 µM): 0.318
- relative viability (HCC-366; first compound 2 µM): 0.181
- relative viability (HCC-366; first compound 6.325 µM): 0.093
- relative viability (HCC-366; first compound 20 µM): 0.0374
- relative viability (201T; first compound 0.2 µM): 0.62
- relative viability (201T; first compound 0.6325 µM): 0.691
- relative viability (201T; first compound 2 µM): 0.588
- relative viability (201T; first compound 6.325 µM): 0.453
- relative viability (201T; first compound 20 µM): 0.305
- relative viability (NCI-H358; first compound 0.2 µM): 0.496
- relative viability (NCI-H358; first compound 0.6325 µM): 0.512
- relative viability (NCI-H358; first compound 2 µM): 0.468
- relative viability (NCI-H358; first compound 6.325 µM): 0.342
- relative viability (NCI-H358; first compound 20 µM): 0.231
- relative viability (NCI-H1793; first compound 0.2 µM): 0.614
- relative viability (NCI-H1793; first compound 2 µM): 0.412
- relative viability (NCI-H1793; first compound 6.325 µM): 0.424
- relative viability (NCI-H1793; first compound 20 µM): 0.271
- relative viability (NCI-H522; first compound 0.2 µM): 0.891
- relative viability (NCI-H522; first compound 0.6325 µM): 0.957
- relative viability (NCI-H522; first compound 2 µM): 0.824
- relative viability (NCI-H522; first compound 6.325 µM): 0.78
- relative viability (NCI-H522; first compound 20 µM): 0.511
- relative viability (NCI-H322M; first compound 0.2 µM): 0.564
- relative viability (NCI-H322M; first compound 0.6325 µM): 0.652
- relative viability (NCI-H322M; first compound 2 µM): 0.446
- relative viability (NCI-H322M; first compound 6.325 µM): 0.455
- relative viability (NCI-H322M; first compound 20 µM): 0.439
- relative viability (NCI-H460; first compound 0.2 µM): 0.538
- relative viability (NCI-H460; first compound 0.6325 µM): 0.629
- relative viability (NCI-H460; first compound 2 µM): 0.526
- relative viability (NCI-H460; first compound 6.325 µM): 0.251
- relative viability (NCI-H460; first compound 20 µM): 0.0582
- relative viability (NCI-H596; first compound 0.2 µM): 1.17
- relative viability (NCI-H596; first compound 0.6325 µM): 1.22
- relative viability (NCI-H596; first compound 2 µM): 1.03
- relative viability (NCI-H596; first compound 6.325 µM): 1.11
- relative viability (NCI-H596; first compound 20 µM): 0.819
- relative viability (H3255; first compound 0.2 µM): 0.863
- relative viability (H3255; first compound 0.6325 µM): 0.85
- relative viability (H3255; first compound 2 µM): 0.783
- relative viability (H3255; first compound 6.325 µM): 0.571
- relative viability (H3255; first compound 20 µM): 0.371
- relative viability (NCI-H650; first compound 0.2 µM): 1.05
- relative viability (NCI-H650; first compound 0.6325 µM): 1.03
- relative viability (NCI-H650; first compound 2 µM): 0.866
- relative viability (NCI-H650; first compound 6.325 µM): 0.975
- relative viability (NCI-H650; first compound 20 µM): 0.271
- relative viability (NCI-H23; first compound 0.2 µM): 0.277
- relative viability (NCI-H23; first compound 0.6325 µM): 0.213
- relative viability (NCI-H23; first compound 2 µM): 0.192
- relative viability (NCI-H23; first compound 6.325 µM): 0.263
- relative viability (NCI-H23; first compound 20 µM): 0.139
